One compound from patent publication US8268755B2, “Oxime ether derivative and fungicide for agricultural and horticultural use” (Nippon Soda Co., Ltd., priority 2007, dated 2012) can be followed below.

With `COC(=O)NOc1cc(/C(C)=N/OCc2cccc(C(F)(F)F)n2)ccc1Cl` [Compound 1446, methyl N-(2-chloro-5-{1-[6-trifluoromethylpyridin-2-ylmethoxyimino]ethyl}phenoxy) carbamate], the melting point (as a rule, the temperature, or range, at which the solid turns liquid) lay in the range of 100 to 101 °C.
